Assay results reported in article PMC6979384, “Characterization of the plant homeodomain (PHD) reader family for their histone tail interactions” (Epigenetics & Chromatin, 2020).

Legend:
Experiment in all cases: Histone peptide microarray
Type in all cases: binding, human
Settings in all cases: each array performed twice, total n = 4
AIRE (PP) = tested on: AIRE (PP)
Procedure, shortened: (§1)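 GST-tagged PHD readers, 0.5 μM, probed on a microarray of 293 synthetic histone peptides carrying single or combinatorial PTMs (optimized Petell protocol). Signals are averaged over 4 replicates and expressed as relative binding.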

BAZ2B = tested on: BAZ2B
Procedure, shortened: as §1

BPTF (PB) = tested on: BPTF (PB)
Procedure, shortened: as §1

CHD4 (PPCC) = tested on: CHD4 (PPCC)
Procedure, shortened: as §1

CHD5 (PCC) = tested on: CHD5 (PCC)
Procedure, shortened: as §1

CHD5 (PPCC) = tested on: CHD5 (PPCC)
Procedure, shortened: as §1

DIDO1 = tested on: DIDO1
Procedure, shortened: as §1

DPF2 (PPC2W2) = tested on: DPF2 (PPC2W2)
Procedure, shortened: as §1

ING1 = tested on: ING1
Procedure, shortened: as §1

ING2 = tested on: ING2
Procedure, shortened: as §1

ING3 = tested on: ING3
Procedure, shortened: as §1

ING4 = tested on: ING4
Procedure, shortened: as §1

ING5 = tested on: ING5
Procedure, shortened: as §1

KDM4C (TTP) = tested on: KDM4C (TTP)
Procedure, shortened: as §1

KDM5A (1) = tested on: KDM5A (1)
Procedure, shortened: as §1

KDM5A (3) = tested on: KDM5A (3)
Procedure, shortened: as §1

KDM5B (1) = tested on: KDM5B (1)
Procedure, shortened: as §1

KDM5B (3) = tested on: KDM5B (3)
Procedure, shortened: as §1

KDM7A = tested on: KDM7A
Procedure, shortened: as §1

MLL5 = tested on: MLL5
Procedure, shortened: as §1

MORC3 (CW) = tested on: MORC3 (CW)
Procedure, shortened: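 Readout is array binding signal, reported as the mean and standard deviation over four replicates. Each purified GST-fused PHD domain was incubated at 0.5 μM with a library of 293 modified histone peptides.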

PHF13 = tested on: PHF13
Procedure, shortened: as §1

PHF21A = tested on: PHF21A
Procedure, shortened: as §1

PHF23 = tested on: PHF23
Procedure, shortened: as §1

PHF2 = tested on: PHF2
Procedure, shortened: as §1

PHF8 = tested on: PHF8
Procedure, shortened: as §1

PHRF1 (RP) = tested on: PHRF1 (RP)
Procedure, shortened: as §1

RAG2 = tested on: RAG2
Procedure, shortened: as §1

SP140L = tested on: SP140L
Procedure, shortened: as §1

TAF3 = tested on: TAF3
Procedure, shortened: as §1

TRIM66 (PB) = tested on: TRIM66 (PB)
Procedure, shortened: as §1

For H3K4me1 (1-21): H3 1-21, the “Array Heatmap value (peptide array signal)” value (“Array Heatmap value” below) (AIRE (PP); AIRE (PP), sheet "Array Heatmap") was 0.4291, the “Array Heatmap value” value (BAZ2B; BAZ2B, sheet "Array Heatmap") was 0.4634 and the “Array Heatmap value” value (BPTF (PB); BPTF (PB), sheet "Array Heatmap") was 0.3509. The “Array Heatmap value” value (CHD4 (PPCC); CHD4 (PPCC), sheet "Array Heatmap") was 0.5532, the “Array Heatmap value” value (CHD5 (PCC); CHD5 (PCC), sheet "Array Heatmap") was 0.76 and the “Array Heatmap value” value (CHD5 (PPCC); CHD5 (PPCC), sheet "Array Heatmap") was 0.5364. The “Array Heatmap value” value (DIDO1; DIDO1, sheet "Array Heatmap") was 0.6834, the “Array Heatmap value” value (DPF2 (PPC2W2); DPF2 (PPC2W2), sheet "Array Heatmap") was 0.6848 and the “Array Heatmap value” value (ING1; ING1, sheet "Array Heatmap") was 0.559. For the same substance, the “Array Heatmap value” value (ING2; ING2, sheet "Array Heatmap") was 0.622, the “Array Heatmap value” value (ING3; ING3, sheet "Array Heatmap") was 0.4698 and the “Array Heatmap value” value (ING4; ING4, sheet "Array Heatmap") was 0.4485. For the same substance, the “Array Heatmap value” value (ING5; ING5, sheet "Array Heatmap") was 0.355, the “Array Heatmap value” value (KDM4C (TTP); KDM4C (TTP), sheet "Array Heatmap") was 0.468 and the “Array Heatmap value” value (KDM5A (1); KDM5A (1), sheet "Array Heatmap") was 0.4646. For the same substance, the “Array Heatmap value” value (KDM5A (3); KDM5A (3), sheet "Array Heatmap") was 0.5345, the “Array Heatmap value” value (KDM5B (1); KDM5B (1), sheet "Array Heatmap") was 0.658 and the “Array Heatmap value” value (KDM5B (3); KDM5B (3), sheet "Array Heatmap") was 0.4879. The “Array Heatmap value” value (KDM7A; KDM7A, sheet "Array Heatmap") was 0.3293, the “Array Heatmap value” value (MLL5; MLL5, sheet "Array Heatmap") was 0.5781 and the “Array Heatmap value” value (MORC3 (CW); MORC3 (CW), sheet "Array Heatmap") was 0.4815. The “Array Heatmap value” value (PHF13; PHF13, sheet "Array Heatmap") was 0.6202, the “Array Heatmap value” value (PHF21A; PHF21A, sheet "Array Heatmap") was 0.4499 and the “Array Heatmap value” value (PHF23; PHF23, sheet "Array Heatmap") was 0.5596. The “Array Heatmap value” value (PHF2; PHF2, sheet "Array Heatmap") was 0.5317, the “Array Heatmap value” value (PHF8; PHF8, sheet "Array Heatmap") was 0.3966 and the “Array Heatmap value” value (PHRF1 (RP); PHRF1 (RP), sheet "Array Heatmap") was 0.5109. The “Array Heatmap value” value (RAG2; RAG2, sheet "Array Heatmap") was 0.2554, the “Array Heatmap value” value (SP140L; SP140L, sheet "Array Heatmap") was 0.3636 and the “Array Heatmap value” value (TAF3; TAF3, sheet "Array Heatmap") was 0.2643. The “Array Heatmap value” value (TRIM66 (PB); TRIM66 (PB), sheet "Array Heatmap") was 0.5876.
In the case of H3K4me2 + K9ac + K18ac: H3 1-20, the “Array Heatmap signal (histone peptide microarray)” value (“Array Heatmap signal” for short) (AIRE (PP); GST-tagged AIRE (PP), sheet Array Heatmap) is reported as 0.3953, the “Array Heatmap signal” value (BAZ2B; GST-tagged BAZ2B, sheet Array Heatmap) is reported as 0.4481 and the “Array Heatmap signal” value (BPTF (PB); GST-tagged BPTF (PB = PHD + Bromodomain), sheet Array Heatmap) is reported as 0.3833. The “Array Heatmap signal” value (CHD4 (PPCC); GST-tagged CHD4 (PPCC = Dual PHD + Dual Chromodomain), sheet Array Heatmap) was 0.5347, the “Array Heatmap signal” value (CHD5 (PCC); GST-tagged CHD5 (PCC = PHD + Dual Chromodomain), sheet Array Heatmap) was 0.7098 and the “Array Heatmap signal” value (CHD5 (PPCC); GST-tagged CHD5 (PPCC = Dual PHD + Dual Chromodomain), sheet Array Heatmap) was 0.5253. For the same substance, the “Array Heatmap signal” value (DIDO1; GST-tagged DIDO1, sheet Array Heatmap) was 0.8235, the “Array Heatmap signal” value (DPF2 (PPC2W2); GST-tagged DPF2 (PPC2W2 = Dual PHD + C2W2-type Zn-finger), sheet Array Heatmap) was 0.6346 and the “Array Heatmap signal” value (ING1; GST-tagged ING1, sheet Array Heatmap) was 0.6509. For the same substance, the “Array Heatmap signal” value (ING2; GST-tagged ING2, sheet Array Heatmap) was 0.7129, the “Array Heatmap signal” value (ING3; GST-tagged ING3, sheet Array Heatmap) was 0.5192 and the “Array Heatmap signal” value (ING4; GST-tagged ING4, sheet Array Heatmap) was 0.4671. For the same substance, the “Array Heatmap signal” value (ING5; GST-tagged ING5, sheet Array Heatmap) was 0.3511, the “Array Heatmap signal” value (KDM4C (TTP); GST-tagged KDM4C (TTP = Tandem Tudor domain + PHD), sheet Array Heatmap) was 0.4492 and the “Array Heatmap signal” value (KDM5A (1); GST-tagged KDM5A (1), sheet Array Heatmap) was 0.4202. For the same substance, the “Array Heatmap signal” value (KDM5A (3); GST-tagged KDM5A (3), sheet Array Heatmap) was 0.7199, the “Array Heatmap signal” value (KDM5B (1); GST-tagged KDM5B (1), sheet Array Heatmap) was 0.595 and the “Array Heatmap signal” value (KDM5B (3); GST-tagged KDM5B (3), sheet Array Heatmap) was 0.5774. The “Array Heatmap signal” value (KDM7A; GST-tagged KDM7A, sheet Array Heatmap) was 0.3188, the “Array Heatmap signal” value (MLL5; GST-tagged MLL5, sheet Array Heatmap) was 0.5921 and the “Array Heatmap signal” value (MORC3 (CW); GST-tagged MORC3 (CW = CW-type Zn-finger), sheet Array Heatmap) was 0.6581. The “Array Heatmap signal” value (PHF13; GST-tagged PHF13, sheet Array Heatmap) was 0.5893, the “Array Heatmap signal” value (PHF21A; GST-tagged PHF21A, sheet Array Heatmap) was 0.4382 and the “Array Heatmap signal” value (PHF23; GST-tagged PHF23, sheet Array Heatmap) was 0.6826. For the same substance, the “Array Heatmap signal” value (PHF2; GST-tagged PHF2, sheet Array Heatmap) was 0.8135, the “Array Heatmap signal” value (PHF8; GST-tagged PHF8, sheet Array Heatmap) was 0.4748 and the “Array Heatmap signal” value (PHRF1 (RP); GST-tagged PHRF1 (RP), sheet Array Heatmap) was 0.5931. For the same substance, the “Array Heatmap signal” value (RAG2; GST-tagged RAG2, sheet Array Heatmap) was 0.3927, the “Array Heatmap signal” value (SP140L; GST-tagged SP140L, sheet Array Heatmap) was 0.3079 and the “Array Heatmap signal” value (TAF3; GST-tagged TAF3, sheet Array Heatmap) was 0.4004. For the same substance, the “Array Heatmap signal” value (TRIM66 (PB); GST-tagged TRIM66 (PB = PHD + Bromodomain), sheet Array Heatmap) was 0.6398.
